In patent US20100136024A1, “Selective Inhibition of Histone Deacetylase 6 for Ocular Neuroprotection or for Treatment or Control of Glaucoma” (priority 2008, published 2010):
Where two headings read alike, the source gives them in different places.

What was measured:
HDAC6 [1] = target: T1, HDAC6 (Homo sapiens, UniProt Q9UBN7); details: Itoh et al. enzyme assay; cited from earlier work
T1 sequence (Q9UBN7 1-1215): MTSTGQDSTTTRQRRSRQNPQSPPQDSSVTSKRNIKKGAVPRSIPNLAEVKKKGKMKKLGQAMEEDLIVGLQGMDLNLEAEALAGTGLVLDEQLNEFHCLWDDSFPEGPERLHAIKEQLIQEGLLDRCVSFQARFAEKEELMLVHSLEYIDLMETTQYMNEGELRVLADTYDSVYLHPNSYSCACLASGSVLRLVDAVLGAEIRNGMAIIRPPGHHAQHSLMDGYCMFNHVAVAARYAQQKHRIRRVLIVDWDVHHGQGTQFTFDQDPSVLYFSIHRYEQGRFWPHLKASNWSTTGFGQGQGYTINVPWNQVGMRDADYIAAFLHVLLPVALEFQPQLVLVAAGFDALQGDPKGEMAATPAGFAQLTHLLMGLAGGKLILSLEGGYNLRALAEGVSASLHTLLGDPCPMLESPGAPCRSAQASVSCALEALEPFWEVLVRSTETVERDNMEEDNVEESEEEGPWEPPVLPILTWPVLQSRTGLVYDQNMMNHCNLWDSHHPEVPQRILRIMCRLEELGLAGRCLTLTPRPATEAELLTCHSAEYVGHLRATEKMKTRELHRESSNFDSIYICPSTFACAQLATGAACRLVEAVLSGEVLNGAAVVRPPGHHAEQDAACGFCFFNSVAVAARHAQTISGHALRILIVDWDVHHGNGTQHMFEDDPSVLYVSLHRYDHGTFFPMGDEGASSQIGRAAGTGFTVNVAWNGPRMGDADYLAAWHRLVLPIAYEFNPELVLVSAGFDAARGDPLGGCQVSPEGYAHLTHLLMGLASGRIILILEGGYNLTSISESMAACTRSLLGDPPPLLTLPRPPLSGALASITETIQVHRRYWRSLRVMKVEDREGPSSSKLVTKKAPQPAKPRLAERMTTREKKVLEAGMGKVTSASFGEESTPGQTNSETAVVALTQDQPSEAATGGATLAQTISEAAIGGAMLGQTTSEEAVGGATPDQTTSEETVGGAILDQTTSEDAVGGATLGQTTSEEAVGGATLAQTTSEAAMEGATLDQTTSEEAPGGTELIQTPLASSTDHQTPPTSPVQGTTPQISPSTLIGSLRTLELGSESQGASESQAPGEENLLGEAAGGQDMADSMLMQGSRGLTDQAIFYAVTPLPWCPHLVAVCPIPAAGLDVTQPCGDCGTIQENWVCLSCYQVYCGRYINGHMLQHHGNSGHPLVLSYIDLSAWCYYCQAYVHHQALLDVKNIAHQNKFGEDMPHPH

A549 cells = details: cited from earlier work
[2] = test system: histone acetylation, gene-expression patterns, cell-cycle progression; details: Haggarty et al.; cited from earlier work
[3] = test system: HDAC6-mediated α-tubulin deacetylation; details: Haggarty et al.; cited from earlier work
HDAC6 [4] = target: T1, HDAC6; assay: HDAC6 inhibition and selectivity, '853 Patent; assay type: biochemical; details: worked out from the IC50 of '853 Patent FIG. 3
From the text: Id., col. 114, lines 64-65. […] Id., col. 115, lines 37-38. […] Id., col. 137.
The '853 Patent provides, in its FIG. 3, the following data regarding the HDAC6 selective activity of compound 10, in comparison with other preferred but non-selective inhibitors of HDAC1 and HDAC6, i.e., compounds 8 and 9: […]

HDAC1 = HDAC1 (Homo sapiens, UniProt Q13547); details: '853 Patent FIG. 3; read-out: Inhibiting Concentration IC50 for HDAC1; cited from earlier work
HDAC6 [5] = target: T1, HDAC6; details: '853 Patent FIG. 3; read-out: Inhibiting Concentration IC50 for HDAC6; cited from earlier work

Sequence of HDAC1 (Q13547 whole entry, species assumed): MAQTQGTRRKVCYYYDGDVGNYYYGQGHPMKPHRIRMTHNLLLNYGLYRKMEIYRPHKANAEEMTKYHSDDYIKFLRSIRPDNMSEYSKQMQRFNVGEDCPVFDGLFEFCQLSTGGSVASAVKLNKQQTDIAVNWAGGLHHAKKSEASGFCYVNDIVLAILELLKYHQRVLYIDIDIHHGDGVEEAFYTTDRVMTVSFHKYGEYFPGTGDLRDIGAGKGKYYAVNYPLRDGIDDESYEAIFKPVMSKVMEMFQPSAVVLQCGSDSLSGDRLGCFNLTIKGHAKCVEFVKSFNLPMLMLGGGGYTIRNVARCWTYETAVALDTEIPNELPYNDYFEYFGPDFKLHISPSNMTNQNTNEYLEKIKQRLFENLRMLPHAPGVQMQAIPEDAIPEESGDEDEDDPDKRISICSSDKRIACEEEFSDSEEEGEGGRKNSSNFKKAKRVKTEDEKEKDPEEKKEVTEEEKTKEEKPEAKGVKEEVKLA

Row | SMILES | IC50 (HDAC6 [1]) [nM] | selectivity HDAC1/HDAC6 (HDAC1 IC50/HDAC6 IC50) (HDAC6 [1]) | selectivity HDAC4/HDAC6 (HDAC4 IC50/HDAC6 IC50) (HDAC6 [1]) | other results
1 | CC(C)(C)NC(=O)[C@H](CCCCCS)NC(=O)OC(C)(C)C [Compound 19a, (S)-tert-butyl 1-(tert-butylamino)-7-mercapto-1-oxoheptan-2-ylcarbamate] | 71 | 42 | 26 | –
2 | CC(C)(C)OC(=O)N[C@@H](CCCCCS)C(=O)NC12CC3CC(CC(C3)C1)C2 [Compound 20a, (S)-tert-butyl 1-(adamant-1-ylamino)-7-mercapto-1-oxoheptan-2-ylcarbamate] | 82 | 46 | 51 | –
3 | CC(C)(C)OC(=O)N[C@@H](CCCCCS)C(=O)NC1CCCCC1 [Compound 17a, (S)-tert-butyl 1-(cyclohexylamino)-7-mercapto-1-oxoheptan-2-ylcarbamate] | – | 35 | 32 | –
4 | O=C(CCCCCCC(=O)Nc1ccc([C@H]2O[C@@H](CSc3nc(-c4ccccc4)c(-c4ccccc4)o3)C[C@@H](c3ccc(CO)cc3)O2)cc1)NO [tubacin] | – | – | – | effect on histone (lysine) acetylation (A549 cells): no effect; concentration at which α-tubulin activity (acetylation) is increased (A549 cells; concentrations as low as): ≤ 125 nM; effect on level of histone acetylation, gene-expression patterns, or cell-cycle progression [2]: does not affect; inhibition of α-tubulin deacetylation [3]: selective and reversible inhibitor
5 | CC(C)(C)OC(=O)N[C@@H](CCCCCS)C(=O)NC1CCCC1 [Compound 16a, (S)-tert-butyl 1-(cyclopentylamino)-7-mercapto-1-oxoheptan-2-ylcarbamate] | – | 42 | 36 | –
6 | CC(C)(C)OC(=O)N[C@@H](CCCCCS)C(=O)NC1CCCCCC1 [Compound 18a, (S)-tert-butyl 1-(cycloheptylamino)-7-mercapto-1-oxoheptan-2-ylcarbamate] | – | 39 | 37 | –
7 | CC(C)(C)OC(=O)N[C@@H](CCCCCS)C(=O)Nc1cnc2ccccc2c1 [Compound 15a] | 32 | 1.6 | 1.0 | –
8 | O=C(CCCC(=O)NCc1ccccc1)NO [Compound 10] | – | – | – | times more selective for HDAC6 than HDAC1 (HDAC6 [4]): about four; IC50 (HDAC1): 1500 ± 500 nM; IC50 (HDAC6 [5]): 380 ± 40 nM
9 | CC(C)(C)OC(=O)N[C@@H](CCCCCS)C(=O)Nc1cccc(-c2ccccc2)c1 [Compound 13a] | 54 | 1.6 | 1.0 | –
